From US20240358693A1, “METHODS OF TREATING PAIN” (Aisa Pharma, Inc., priority 2023, published 2024)

Tested on: participants with SSc-RP
Test: Scleroderma Health Assessment Questionnaire (SHAQ): disability indices and visual analog scales
Assay type: in vivo, human
Settings: Part A
Source text: The standard, validated, patient reported outcome measures tool for SSc patients, the Scleroderma Health Assessment Questionnaire (SHAQ), will be used to assess the participant qualify of life. Details are attached in the Appendix. The participant quality of life will be scored, and a disability index calculated for each questionnaire completed by the patient at Screening and each in-clinic visit. The absolute change in participant quality of life from baseline to the end of each dosing period will be calculated similar to frequency data as before.
The SHAQ includes a Raynaud's VAS, which will be reported at screening and each in-clinic visit. The absolute change in Raynaud-VAS, assessed by the participants response to the SHAQ question ‘In the past 7 days, how much have your Raynaud's interfered with your daily activities?’ at baseline and the end of each dosing period will be calculated similar to frequency data as before.
The SHAQ is used to calculate a Disability Index to assess the participant qualify of life. The eight categories assessed by the Disability Index are 1) dressing and grooming, 2) arising, 3) eating, 4) walking, 5) hygiene, 6) reach, 7) grip, and 8) common daily activities. For each of these categories, patients report the amount of difficulty they have in performing two or three specific activities.
There are four possible responses for the Disability Index questions: • Without any difficulty=0 • With some difficulty=1 • With much difficulty=2 • Unable to do=3. • The highest score reported by the patient for any component question of the eight categories determines the score for that category. • If a component question is left blank or the response is too ambiguous to assign a score, then the score for that category is determined by the remaining completed question(s). • If all component questions are blank or if more than one answer is given, then follow up with the respondent is required. • If the respondent's mark is between the response columns, then move it to the closest one. If it's directly between the two, move it to the higher one.
Each of the disability items on the SHAQ has a companion aids/devices variable that is used to record what type(s) of assistance, if any, the participant uses for his/her usual activities. These variables (see below) are coded as follows: • 0=No assistance is needed. • 1=A special device is used by the patient in his/her usual activities. • 2=The patient usually needs help from another person. • 3=The patient usually needs BOTH a special device AND help from another person.
The scoring variables and scoring rules permit the computation of two disability indices, the Standard Disability Index and the Alternative Disability Index.
This question results in a new set of category scores that are computed by adjusting the score for each category, if necessary, based on the patient's use of an aid or device or assistance for that category. If either devices and/or help from another person are checked for a category, the score is set to “2”, unless the score is already “3” (i.e., scores of “0” or “1” are increased to “2”). For example, if the highest score for the dressing category is “1”, and the patient says they use a device for dressing, the computed category score would be “2”. The sum of the computed categories scores is then calculated and divided by the number of categories answered. This gives a score in the 0 to 3 range.
The aid and device variables are not used to calculate the alternative disability index; it is calculated by adding the scores for each of the categories and dividing by the number of categories answered. This gives a score in the 0 to 3 range.
The standard, validated, patient reported outcome measures tool for SSc patients, the SHAQ, was collected at the time points specified in the study schedules (FIG. 2 and FIGS. 4A and 4B) to assess the participant's quality of life. The SHAQ included a Raynaud's VAS that will also be reported separately.

[1] = Modified ITT, dose Cilnidipine 20 mg, or 20 mg + Tadalafil 5 mg
[2] = PP Population, sensitivity analysis, Pooled Cilnidipine 10 mg and Cilnidipine 10 mg + Tadalafil 5 mg
[3] = PP Population, sensitivity analysis, Pooled Cilnidipine 20 mg and Cilnidipine 20 mg + Tadalafil 5 mg
[4] = PP Population, sensitivity analysis, cilnidipine 10 mg and/or tadalafil 5 mg as labelled

Structure (SMILES): COCCOC(=O)C1=C(C)NC(C)=C(C(=O)OC/C=C/c2ccccc2)C1c1cccc([N+](=O)[O-])c1 (stereo not shown) [Cilnidipine, cilnidipine]
- SHAQ Finger Ulcers, In Clinic Visit (Day 12), Mean [1]: 0.867
- SHAQ Finger Ulcers, In Clinic Visit (Day 12), Median [1]: 0.700
- SHAQ Standard disability index, Baseline, Mean [1]: 0.250
- SHAQ Standard disability index, Baseline, Median [1]: 0.375
- SHAQ Standard disability index, In Clinic Visit (Day 12), Mean [1]: 0.125
- SHAQ Standard disability index, In Clinic Visit (Day 12), Median [1]: 0.125
- SHAQ Visual Analog Scale-Breathing Problems, Baseline, Mean [1]: 1.133
- SHAQ Visual Analog Scale-Breathing Problems, Baseline, Median [1]: 1.200
- SHAQ Visual Analog Scale-Breathing Problems, In Clinic Visit (Day 12), Mean [1]: 0.300
- SHAQ Visual Analog Scale-Breathing Problems, In Clinic Visit (Day 12), Median [1]: 0.400
- SHAQ Visual Analog Scale-Intestinal Problems, Baseline, Mean [1]: 0.833
- SHAQ Visual Analog Scale-Intestinal Problems, Baseline, Median [1]: 1.000
- SHAQ Visual Analog Scale-Intestinal Problems, In Clinic Visit (Day 12), Mean [1]: 1.133
- SHAQ Visual Analog Scale-Intestinal Problems, In Clinic Visit (Day 12), Median [1]: 1.300
- SHAQ Visual Analog Scale-Pain, Baseline, Mean [1]: 2.167
- SHAQ Visual Analog Scale-Pain, Baseline, Median [1]: 1.500
- SHAQ Visual Analog Scale-Pain, In Clinic Visit (Day 12), Mean [1]: 1.067
- SHAQ Visual Analog Scale-Pain, In Clinic Visit (Day 12), Median [1]: 0.700
- SHAQ Visual Analog Scale-Raynaud's, Baseline, Mean [1]: 2.300
- SHAQ Visual Analog Scale-Raynaud's, Baseline, Median [1]: 2.500
- SHAQ Visual Analog Scale-Raynaud's, In Clinic Visit (Day 12), Mean [1]: 1.033
- SHAQ Visual Analog Scale-Raynaud's, In Clinic Visit (Day 12), Median [1]: 1.100
- SHAQ alternative disability index, Baseline, Mean [1]: 0.208
- SHAQ alternative disability index, Baseline, Median [1]: 0.250
- SHAQ alternative disability index, In Clinic Visit (Day 12), Mean [1]: 0.125
- SHAQ alternative disability index, In Clinic Visit (Day 12), Median [1]: 0.125
- SHAQ Alternative Disability Index: Baseline, Mean [2]: 0.458
- SHAQ Alternative Disability Index: Baseline, Median [2]: 0.250
- SHAQ Alternative Disability Index: Change from Baseline (Day 12), Mean [2]: 0.021
- SHAQ Alternative Disability Index: Change from Baseline (Day 12), Median [2]: 0.000
- SHAQ Alternative Disability Index: In-Clinic Visit (Day 12), Mean [2]: 0.479
- SHAQ Alternative Disability Index: In-Clinic Visit (Day 12), Median [2]: 0.250
- SHAQ Alternative Disability Index: Percent Change from Baseline (Day 12), Mean [2]: 28.11%
- SHAQ Alternative Disability Index: Percent Change from Baseline (Day 12), Median [2]: −10.00%
- SHAQ Alternative Disability Index: Baseline, Mean [3]: 0.453
- SHAQ Alternative Disability Index: Baseline, Median [3]: 0.250
- SHAQ Alternative Disability Index: Change from Baseline (Day 12), Mean [3]: −0.036
- SHAQ Alternative Disability Index: Change from Baseline (Day 12), Median [3]: −0.063
- SHAQ Alternative Disability Index: In-Clinic Visit (Day 12), Mean [3]: 0.417
- SHAQ Alternative Disability Index: In-Clinic Visit (Day 12), Median [3]: 0.250
- SHAQ Alternative Disability Index: Percent Change from Baseline (Day 12), Mean [3]: 13.40%
- SHAQ Alternative Disability Index: Percent Change from Baseline (Day 12), Median [3]: −18.13%
- SHAQ Visual Analogue Scale - Breathing Problems: Baseline, Mean [4]: 1.875
- SHAQ Visual Analogue Scale - Breathing Problems: Baseline, Median [4]: 0.000
- SHAQ Visual Analogue Scale - Breathing Problems: Change from Baseline (Day 12), Mean [4]: −0.300
- SHAQ Visual Analogue Scale - Breathing Problems: Change from Baseline (Day 12), Median [4]: 0.000
- SHAQ Visual Analogue Scale - Breathing Problems: In-Clinic Visit (Day 12), Mean [4]: 1.575
- SHAQ Visual Analogue Scale - Breathing Problems: In-Clinic Visit (Day 12), Median [4]: 0.000
- SHAQ Visual Analogue Scale - Breathing Problems: Percent Change from Baseline (Day 12), Mean [4]: −16.00%
- SHAQ Visual Analogue Scale - Breathing Problems: Percent Change from Baseline (Day 12), Median [4]: −16.00%
- SHAQ Visual Analogue Scale - Finger Ulcers: Baseline, Mean [4]: 0.700
- SHAQ Visual Analogue Scale - Finger Ulcers: Baseline, Median [4]: 0.500
- SHAQ Visual Analogue Scale - Finger Ulcers: Change from Baseline (Day 12), Mean [4]: −0.425
- SHAQ Visual Analogue Scale - Finger Ulcers: Change from Baseline (Day 12), Median [4]: −0.350
- SHAQ Visual Analogue Scale - Finger Ulcers: In-Clinic Visit (Day 12), Mean [4]: 0.275
- SHAQ Visual Analogue Scale - Finger Ulcers: In-Clinic Visit (Day 12), Median [4]: 0.000
- SHAQ Visual Analogue Scale - Finger Ulcers: Percent Change from Baseline (Day 12), Mean [4]: −69.44%
- SHAQ Visual Analogue Scale - Finger Ulcers: Percent Change from Baseline (Day 12), Median [4]: −69.44%
- SHAQ Visual Analogue Scale - Intestinal Problems: Baseline, Mean [4]: 2.975
- SHAQ Visual Analogue Scale - Intestinal Problems: Baseline, Median [4]: 2.550
- SHAQ Visual Analogue Scale - Intestinal Problems: Change from Baseline (Day 12), Mean [4]: −1.875
